From patent publication US20260248927A1, “TARGETED PROTEIN DEGRADATION USING BIFUNCTIONAL COMPOUNDS THAT BIND UBIQUITIN LIGASE AND TARGET MCL-1 PROTEIN” (Captor Therapeutics S.A., priority 2022, published 2026) come the findings set out here.

Counter-ions that a name gives are not always drawn.

Data set [1] is described as follows: Cell viability assay (CellTiter-Glo), ARH-77. It counts as cell-based. The following applies: human, ARH-77 cells (lymphoblast-like, MCL-1 independent), ARH-77, 24 hours, 1% FBS, read-out: Average pCC50 by molecule ARH-77 (converted). An excerpt:
(§1) The effect of various compounds of the invention on the viability of MV4-11 and ARH-77 cell lines was investigated, using the CTG protocol described below.
(§2) MV4-11 cell lines are derived from acute myeloid leukaemia and it is described in the literature as a MCL-1 dependent cell line, as opposed to lymphoblast-like ARH-77 cell line, which is described as independent of MCL-1 (Tron A E et al. Nat Commun. 2018; 9: 5341; Caenepeel S et al. Cancer Discov. 2018 December; 8(12): 1582-1597).
(§3) Cells (MV4-11 or ARH-77) were seeded on […] in a growth medium with 1% FBS. Next, compound stocks were pre-diluted in DMSO and added directly to the cell culture media (final DMSO concentration: 0.5%). Compound concentrations used in this assay: 1/3 dilutions starting at 30 μM (9 to 12 points). After 24 hours of incubation, cell viability was evaluated using CellTiter-Glo Luminescent Cell Viability Assay (Promega, cat #G7572). The luminescence signal was measured using a CLARIOstar Plus Multi-Mode Microplate Reader (574-590 nm).
(§4) Results were normalized to DMSO control. Collected data were analyzed using GraphPad Prism to calculate pCC50 values.
Background: ATP-based viability assays read luminescence as a measure of living cells.

Data set [2] concerns MV4-11 cells. Briefly: Cell viability assay (CellTiter-Glo), MV4-11. It counts as cell-based. The following applies: Homo sapiens, MV4-11, 24 hours, 1% FBS, read-out: Average pCC50 by molecule MV4-11 (converted).
From the text: as §1, §2, §3, §4

Data set [3] deals with [MCL-1]-[compound of formula (I)]—[CRBN/DDB1] (Homo sapiens, UniProt Q07820+Q96SW2). Briefly: HTRF ternary complex formation assay. It counts as binding. The settings on record: hMcl-1 and CRBN, 180 min at 25° C.; read-out: HTRF ternary complex Average pEC50 by molecule (converted). The protocol:
The effect of the bifunctional compounds of the invention on the formation of a ternary complex composed of [MCL-1]-[compound of formula (I)]—[CRBN/DDB1] was investigated with HTRF ternary complex assay.
Mix of protein solution was prepared: • 48 nM hMcl-1 and 105.6 nM CRBN were prepared in PPI Europium detection buffer with 2 mM DTT. • Acceptor and donor stock solutions were diluted 100 times in PPI Europium detection buffer. Equal volumes of both reagents were mixed. Finally giving 3 nM of Streptavidin-Eu cryptate ([…]) and 6.67 nM of Anti-6×his-d2 ([…]).
5 μl of protein mix was dispensed to all wells. The tested compounds in dose-response were dispensed onto a white 384-well low volume plate (Greiner, 784075). DMSO was backfilled to all wells, resulting in a final DMSO content of 0.5%. Wells containing only DMSO served as a background. Next, 5 μl of solution with donor and acceptor was added to the wells.
The plate was sealed with transparent film and shaken using a VibroTurbulator for 60 sec at level 3. The plate was then spun down shortly (10 s, 1000 rcf) and incubated at 25° C. for 180 min.
The read-out was performed with plate reader (Pherastar, BMG Labtech) in time resolved fluorescence mode. Filterset: TR 337 665 620.
The results were analyzed as follows: • 1) an average of fluorescence for background signal was calculated and used as a negative control; • 2) raw fluorescence values for tested compounds were normalized against negative controls; • 3) bell shape curve was fitted to a gaussian distribution using a non-linear least squares Gauss-Newton algorithm; • 4) EC50 and pEC50 values were determined.

[MCL-1]-[compound of formula (I)]—[CRBN/DDB1], sequence (Q07820 whole entry): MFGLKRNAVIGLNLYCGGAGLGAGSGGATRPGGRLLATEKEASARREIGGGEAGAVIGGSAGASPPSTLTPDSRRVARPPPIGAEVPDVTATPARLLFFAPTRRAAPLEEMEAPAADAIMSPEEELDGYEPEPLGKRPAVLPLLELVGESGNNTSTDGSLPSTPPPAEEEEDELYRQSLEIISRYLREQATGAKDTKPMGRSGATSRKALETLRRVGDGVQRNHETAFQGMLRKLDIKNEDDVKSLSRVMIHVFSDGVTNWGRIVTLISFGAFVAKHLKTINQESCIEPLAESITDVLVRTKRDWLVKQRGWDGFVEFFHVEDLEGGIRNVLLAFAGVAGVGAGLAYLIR
[MCL-1]-[compound of formula (I)]—[CRBN/DDB1], sequence (Q96SW2 whole entry): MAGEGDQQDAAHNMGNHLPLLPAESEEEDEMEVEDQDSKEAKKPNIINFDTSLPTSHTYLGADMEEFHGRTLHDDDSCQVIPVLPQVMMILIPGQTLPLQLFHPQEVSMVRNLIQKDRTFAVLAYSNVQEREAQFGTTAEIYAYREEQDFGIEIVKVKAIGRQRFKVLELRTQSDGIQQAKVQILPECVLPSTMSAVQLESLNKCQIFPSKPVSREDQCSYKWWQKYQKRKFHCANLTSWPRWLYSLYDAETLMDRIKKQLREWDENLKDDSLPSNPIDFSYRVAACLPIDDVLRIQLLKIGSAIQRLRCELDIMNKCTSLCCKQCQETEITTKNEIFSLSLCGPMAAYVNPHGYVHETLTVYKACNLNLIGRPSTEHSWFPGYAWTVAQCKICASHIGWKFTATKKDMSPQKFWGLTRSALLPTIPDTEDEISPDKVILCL
[MCL-1]-[compound of formula (I)]—[CRBN/DDB1], sequence (Q16531 whole entry partner): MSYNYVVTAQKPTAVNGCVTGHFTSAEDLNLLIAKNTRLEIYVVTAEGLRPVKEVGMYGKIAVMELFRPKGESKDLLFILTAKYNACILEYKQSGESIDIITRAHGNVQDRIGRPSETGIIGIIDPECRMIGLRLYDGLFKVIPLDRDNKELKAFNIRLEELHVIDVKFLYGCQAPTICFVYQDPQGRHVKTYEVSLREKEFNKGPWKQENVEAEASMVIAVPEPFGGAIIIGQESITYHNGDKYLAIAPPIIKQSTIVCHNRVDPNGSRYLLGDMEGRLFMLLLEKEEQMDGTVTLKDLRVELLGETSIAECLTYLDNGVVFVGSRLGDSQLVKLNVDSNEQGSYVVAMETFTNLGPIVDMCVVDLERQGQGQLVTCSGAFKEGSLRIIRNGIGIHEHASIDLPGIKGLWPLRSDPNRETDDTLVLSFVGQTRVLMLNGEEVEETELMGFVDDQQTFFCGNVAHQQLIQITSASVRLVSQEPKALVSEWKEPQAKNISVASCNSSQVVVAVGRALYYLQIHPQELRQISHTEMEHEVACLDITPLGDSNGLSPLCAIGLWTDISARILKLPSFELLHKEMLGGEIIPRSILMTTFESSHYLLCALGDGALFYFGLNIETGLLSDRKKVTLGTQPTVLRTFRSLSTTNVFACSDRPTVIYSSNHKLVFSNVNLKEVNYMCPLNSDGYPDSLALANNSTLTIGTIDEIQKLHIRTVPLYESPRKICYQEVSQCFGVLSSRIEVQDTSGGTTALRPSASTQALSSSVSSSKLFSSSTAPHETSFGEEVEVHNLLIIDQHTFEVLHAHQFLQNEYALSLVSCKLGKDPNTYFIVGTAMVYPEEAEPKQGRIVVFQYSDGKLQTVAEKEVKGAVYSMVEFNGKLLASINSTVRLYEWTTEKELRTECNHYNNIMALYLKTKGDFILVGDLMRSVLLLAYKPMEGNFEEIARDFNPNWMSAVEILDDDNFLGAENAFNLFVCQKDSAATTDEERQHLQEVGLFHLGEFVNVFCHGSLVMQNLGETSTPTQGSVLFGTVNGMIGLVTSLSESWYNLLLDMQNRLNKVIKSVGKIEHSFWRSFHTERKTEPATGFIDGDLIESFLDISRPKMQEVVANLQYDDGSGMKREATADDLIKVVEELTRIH

Consider `Cc1nn(C)c(C)c1-c1c(Cl)ccc2c(CCCOc3cccc4cc(F)ccc34)c(C(=O)O)n(CCN3C(C)CN(C(=O)COc4cccc5c4CN(C4CCC(=O)NC4=O)C5=O)CC3C)c12` (stereo not drawn) [Compound 28, 6-Chloro-1-{2-[4-(2-{[2-(2,6-dioxopiperidin-3-yl)-1-oxo-2,3-dihydro-1H-isoindol-4-yl]oxy}acetyl)-2,6-dimethylpiperazin-1-yl]ethyl}-3-{3-[(6-fluoronaphthalen-1-yl)oxy]propyl}-7-(1,3,5-trimethyl-1H-pyrazol-4-yl)-1H-indole-2-carboxylic acid], for which the CC50 at 24 h in data set [1] was greater than 10000 nM. Further, the CC50 in data set [2] is less than 316 nM. Further, the EC50 in data set [3] was less than 100 nM.
For `CCc1nn2c(c1-c1c(Cl)ccc3c(CCCOc4cccc5cc(F)ccc45)c(C(=O)O)n(CCN4CCN(C(=O)COc5cccc6c5CN(C5CCC(=O)NC5=O)C6=O)CC4)c13)COCC2` (stereo not drawn) [Compound 36, 6-Chloro-1-(2-(4-(2-((2-(2,6-dioxopiperidin-3-yl)-1-oxoisoindolin-4-yl)oxy)acetyl)piperazin-1-yl)ethyl)-7-(2-ethyl-6,7-dihydro-4H-pyrazolo[5,1-c][1,4]oxazin-3-yl)-3-(3-((6-fluoronaphthalen-1-yl)oxy)propyl)-1H-indole-2-carboxylic acid], in that order: greater than 10000 nM, less than 100 nM and less than 316 nM.
For `Cc1nn(C)c(C)c1-c1c(Cl)ccc2c(CCCOc3cccc4cc(F)ccc34)c(C(=O)O)n(CCN3CCC(CN4CCN(c5cc6c(cc5F)C(=O)N(C5CCC(=O)NC5=O)C6)CC4)CC3)c12` (stereo not drawn) [Compound 144, 6-Chloro-1-(2-(4-((4-(2-(2,6-dioxopiperidin-3-yl)-6-fluoro-1-oxoisoindolin-5-yl)piperazin-1-yl)methyl)piperidin-1-yl)ethyl)-3-(3-((6-fluoronaphthalen-1-yl)oxy)propyl)-7-(1,3,5-trimethyl-1H-pyrazol-4-yl)-1H-indole-2-carboxylic acid] the same measures were greater than 3160 nM, less than 100 nM and less than 31.6 nM.
For `COCCOCCn1nc(C)c(-c2c(Cl)ccc3c(CCCOc4cccc5cc(F)ccc45)c(C(=O)O)n(CCN4CCN(C(=O)COc5cccc6c5CN(C5CCC(=O)NC5=O)C6=O)CC4)c23)c1C` (stereo not drawn) [Compound 147, 1-(2-(2-Carboxy-6-chloro-3-(3-((6-fluoronaphthalen-1-yl)oxy)propyl)-7-(1-(2-(2-methoxyethoxy)ethyl)-3,5-dimethyl-1H-pyrazol-4-yl)-1H-indol-1-yl)ethyl)-4-(2-((2-(2,6-dioxopiperidin-3-yl)-1-oxoisoindolin-4-yl)oxy)acetyl)piperazin-1-ium trifluoroacetate], in that order: greater than 31600 nM, less than 100 nM and less than 100 nM.
Take `Cc1nn(C)c(C)c1-c1c(Cl)ccc2c(CCCOc3cccc4cc(F)ccc34)c(C(=O)O)n(CCN3CCN(C(=O)c4cc5cc(C6CCC(=O)NC6=O)ccc5n4C)CC3)c12` (stereo not drawn) [Compound 148, 6-Chloro-1-(2-(4-(5-(2,6-dioxopiperidin-3-yl)-1-methyl-1H-indole-2-carbonyl)piperazin-1-yl)ethyl)-3-(3-((6-fluoronaphthalen-1-yl)oxy)propyl)-7-(1,3,5-trimethyl-1H-pyrazol-4-yl)-1H-indole-2-carboxylic acid]: the CC50 at 24 h in data set [1] is greater than 3160 nM. The CC50 in data set [2] is less than 316 nM. For the same compound, the EC50 in data set [3] is less than 31.6 nM.
